Where “and” joins values, the source holds several entries; their conditions need not be identical. Equal entries are not always repeated.
Assays:
[1] = Cytotoxicity test (SRB), A431; type: cell-based; details: human, A431 skin cancer cells
Protocol: (§1) Cytotoxicity of the compounds of the present invention was tested with human non-small cell lung cancer cells A549, human cervical cancer Hela cells, human skin cancer cells A431. The test was performed by referring to the method described by Rusnak et al (Rusnak D. W., et al., Cell Prolif., 2007, 40, 580-94).
(§2) In Dulbecco's Modified Eagle Medium (DMEM) comprising 10% fetal bovine serum, 2 mM glutamine and non-essential amino acids, cells were cultured at 37° C. in 5% CO2 cell incubator. Trypsin/ethylenediamine tetraacetic acid (EDTA) were used to harvest cells in cell culture bottle. The cells were added to a 96-well cell culture plate, 4000/well (0.1 ml medium), adhering wall overnight, 0.1 ml of the diluted solution of the compounds to be tested was added, the final concentration of DMSO was 0.25%. The cell culture plate was incubated at 37° C., 5% CO2 conditions for 72 h. The change of cellular morphology was observed under microscope, and then 50 μl of 50% (mass/volume) trichloroacetic acid (TCA) was added to each well to fix cells. The final concentration of TCA was 10%. It stood for 5 min, than was placed in 4° C. refrigerator for 1 h, the wells of the culture plate were washed with deionized water for 5 times to remove TCA, drained, dried in air until no wet trace was observed. 100 μl of 0.4% (mass/volume) SRB was added to each well, stood at room temperature for 10 min. The liquid in each well was discarded, and then the wells were washed with 1% acetic acid for 5 times, dried in air, extracted with 150 μl of 10 mM Tris base (trihydroxymethylaminomethane, pH 10.5). The absorption at a wavelength of 540 nm was measured. The IC50 (μM) of the compound was calculated using Logit method.

[2] = tested on: human colon cancer HT 29 transplanted tumor; test: Nude mice transplanted tumor test; type: in vivo, female Balb/cA nude mice; design: key to d21 Vave ± SD (average tumor volume): tumor volume TV = ½×a×b² (a, b = major, minor diameter), in mm³; details: for Dead animal number: dead/total animals; for inhibition in vivo at 80 mg/kg: Mus musculus, HT-29, po, 504 h, (1−T/C)×100%, read-out: Tumor inhibition rate d21 (%); for inhibition in vivo at 80 mg/kg / d21 Wave ± SD (average bodyweight of nude mice) / d21 Vave ± SD (average tumor volume) / d21 RTV ± SD (relative tumor volume): d21; for d0 Wave ± SD (average bodyweight of nude mice): d0, at grouping before administration (baseline); for d21 Vave ± SD (average tumor volume): HT 29 in nude mice, in mm³ (unit assumed); for d21 RTV ± SD (relative tumor volume): RTV=Vt/V0; for Activity of inhibiting HT-29 transplanted tumor in vivo (in words): 80 mg/kg, compared with positive control Sunitinib
Protocol: The nude mice transplanted tumor test used female Balb/cA nude mice, and tumor strains were human colon cancer HT 29 strains.
Under sterile condition, eugonic tumor tissues stage were cut into pieces of about 1.5 mm^3, and inoculated at right axillary fossa of the nude mice. The transplanted tumor diameter was measured by vernier caliper, and the animals were randomly grouped after the tumors grew to about 120 mm^3. The positive control group and the compounds group in a dosage of 80 mg/kg were administered intragastrically each day for consecutive 20 days. The negative control group was given equivalent amount of injection water containing 0.1% Tween 80. Tumor diameters and the bodyweight of mice were measured 2-3 times every week. The evaluation indexes observed in the test include relative tumor proliferation rate, bodyweight and general states. The formulation for calculating tumor volume (TV) is: TV=½×a×b^2, wherein a, b represent major diameter and minor diameter of tumor; Relative tumor volume (RTV) was calculated according the results of measurement by the following formula: RTV=Vt/V0, wherein V0 is tumor volume measured when dividing groups for administration, and Vt is tumor volume measured after each administration.

[3] = tested on: three kinds of tumor cells (A549, Hela, A431); test: Cytotoxicity test, summary over the three tumor cell lines; type: cell-based, human; details: compared with positive control Sunitinib
Protocol: as §1, §2

[4] = tested on: arterial ring angiogenesis in rats; test: Inhibitory actions on arterial ring angiogenesis in rats; type: cell-based; details: Rattus norvegicus, area covered by micrangiums vs control well, read-out: Inhibitory rate (%); for inhibition at 0.2 µg/mL: 0.2 μg/ml; for inhibition at 1 µg/mL: 1 μg/ml; for inhibition at 5 µg/mL: 5 μg/ml
Protocol: This experiment was conducted by referring to the method described by R. F. Nicosia et al (Nicosia, R. F., et al. Am J Pathol., 1997, 151, 1379-1386). Rats were executed by cervical dislocation. The thoracic aorta was carefully separated, and placed in a container with physiological saline. The excess tissues were carefully cut off. The blood vessels were cut with a pair of ophthalmic scissors to form 1 mm thick vascular ring slices. To a pre-cooled 96-well cell culture plate, one separated vascular ring was placed in the center of each well. 70 μl of pre-molten Matrigel was carefully added to cover the vascular ring, which was incubated at 37° C. for 1 h so as to solidify it. […] The sample was placed in incubator for conventional culture, and each compound was tested at least in two repeated wells, and each test was repeated twice. […] The fresh culture medium was replaced every 3 days, and the drug was changed at the same time. The survival status of vascular rings was observed under microscope, and pictures were taken at the same time. Image Pro Plus software was used to calculate the area covered by micrangiums. The average inhibition rate was calculated by using the formula: inhibition rate (%)=(area of control well−area of drug well)/area of control well×100%.

[5] = Cytotoxicity test (SRB), A549; type: cell-based; details: human, A549 non-small cell lung cancer cells
Protocol: as §1, §2

[6] = Cytotoxicity test (SRB), Hela; type: cell-based; details: human, Hela cervical cancer cells
Protocol: Cytotoxicity of the compounds of the present invention was tested with human non-small cell lung cancer cells A549, human cervical cancer Hela cells, human skin cancer cells A431. The test was performed by referring to the method described by Rusnak et al (Rusnak D. W., et al., Cell Prolif., 2007, 40, 580-94). […] Trypsin/ethylenediamine tetraacetic acid (EDTA) were used to harvest cells in cell culture bottle. The cells were added to a 96-well cell culture plate, 4000/well (0.1 ml medium), adhering wall overnight, 0.1 ml of the diluted solution of the compounds to be tested was added, the final concentration of DMSO was 0.25%. The cell culture plate was incubated at 37° C., 5% CO2 conditions for 72 h. […] The absorption at a wavelength of 540 nm was measured. The IC50 (μM) of the compound was calculated using Logit method.

[7] = 80 mg/kg intragastrically each day for 20 days

| SMILES | IC50 at 72 h [1] [µM] | Dead animal number [2, 7] | inhibition in vivo at 80 mg/kg [2, 7] [%] | d0 Wave ± SD (average bodyweight of nude mice) [2] | d21 Wave ± SD (average bodyweight of nude mice) [2, 7] | d21 Vave ± SD (average tumor volume) [2, 7] | d21 RTV ± SD (relative tumor volume) [2, 7] | Cytotoxicity to tumor cells (in words) [3] | inhibition at 0.2 µg/mL [4] [%] | inhibition at 1 µg/mL [4] [%] | inhibition at 5 µg/mL [4] [%] | IC50 at 72 h [5] [µM] | IC50 at 72 h [6] [µM] | Activity of inhibiting HT-29 transplanted tumor in vivo (in words) [2] | States of mice / toxicity signs (in words) [2, 7] | Bodyweight of mice after administration (in words) ([2]; mouse, in vivo) |
| --- | --- | --- | --- | --- | --- | --- | --- | --- | --- | --- | --- | --- | --- | --- | --- | --- |
| Cc1[nH]c(/C=C2\C(=O)Nc3ccc(F)cc32)c(C)c1NC(=O)CCN1CCCCC1 [Compound 13, N-{5-[5-fluoro-2-oxo-1,2-dihydro-indol-(3Z)-ylidenemethyl]-2,4-dimethyl-1H-pyrrol-3-yl}-3-(piperidin-1-yl)propionamide] | 8.69 | 0/6 | 71.1 | 19.1 ± 0.85 | 20.1 ± 0.88 | 253.8 ± 56.4 | 2.08 ± 0.59 | certain toxicity to some cells | 93 | 100 | 100 | > 30 | > 30 | – | – | – |
| Cc1[nH]c(/C=C2\C(=O)Nc3ccc(F)cc32)c(C)c1NC(=O)CN1CCOCC1 [Compound 19, N-{5-[5-fluoro-2-oxo-1,2-dihydro-indol-(3Z)-ylidenemethyl]-2,4-dimethyl-1H-pyrrol-3-yl}-2-(morpholin-4-yl)acetamide] | 7.6 | – | – | – | – | – | – | certain toxicity to some cells | 89 | 100 | 100 | > 30 | > 30 | – | – | – |
| CCN(CC)CC(=O)Nc1c(C)[nH]c(/C=C2\C(=O)Nc3ccc(NC(C)=O)cc32)c1C [Compound 28, N-{5-[5-acetylamino-2-oxo-1,2-dihydro-indol-(3Z)-ylidenemethyl]-2,4-dimethyl-1H-pyrrol-3-yl}-2-(N,N-diethylamino)acetamide] | > 30 | 0/6 | 77 | 18.8 ± 1.01 | 19.5 ± 0.86 | 204.3 ± 52.7 | 1.65 ± 0.62 | – | 90 | 100 | 100 | > 30 | > 30 | – | – | – |
| Cc1[nH]c(/C=C2\C(=O)Nc3ccc(F)cc32)c(C)c1NC(=O)CCCN(C)C [Compound 5, N-{5-[5-fluoro-2-oxo-1,2-dihydro-indol-(3Z)-ylidenemethyl]-2,4-dimethyl-1H-pyrrol-3-yl}-4-(N,N-dimethylamino)butyramide] | > 30 | 0/6 | 86.6 | 18.9 ± 1.00 | 18.6 ± 0.87 | 111.8 ± 28.2 | 0.96 ± 0.42 | – | 93 | 100 | 100 | > 30 | > 30 | – | – | – |
| CCN(CC)CCC(=O)Nc1c(C)[nH]c(/C=C2\C(=O)Nc3ccc(F)cc32)c1C [Compound 1, N-{5-[5-fluoro-2-oxo-1,2-dihydro-indol-(3Z)-ylidenemethyl]-2,4-dimethyl-1H-pyrrol-3-yl}-3-(N,N-diethylamino)propionamide] | > 30 | 0/6 | 86.9 | 18.6 ± 1.20 | 18.8 ± 2.97 | 102.8 ± 26.2 | 0.94 ± 0.12 | – | 99 | 100 | 100 | > 30 | > 30 | inhibitory activity comparable to the positive control Sunitinib | – | – |
| CCN1CCN(CCC(=O)Nc2c(C)[nH]c(/C=C3\C(=O)Nc4ccc(F)cc43)c2C)CC1 [Compound 10, N-{5-[5-fluoro-2-oxo-1,2-dihydro-indol-(3Z)-ylidenemethyl]-2,4-dimethyl-1H-pyrrol-3-yl}-3-(4-ethylpiperazin-1-yl)propionamide] | > 30 | 0/6 | 86.4 | 18.7 ± 1.10 | 18.9 ± 0.97 | 112.8 ± 36.4 | 0.98 ± 0.34 | – | 98 | 100 | 100 | > 30 | > 30 | inhibitory activity comparable to the positive control Sunitinib | – | – |
| CCN(CC)CCNC(=O)c1c(C)[nH]c(/C=C2\C(=O)Nc3ccc(F)cc32)c1C [Sunitinib, reference compound] | 1.93 | one tumor-bearing mouse died and 1/6 | 88.5 | 19.4 ± 0.44 | – | 129.6 ± 45.8 | – | – | 95 | 100 | 100 | 11.5 | 2.03 | – | yellowing skin and blood in excrement | decreased significantly |

— patent US8637681B2, “Pyrrolyl substituted dihydroindol-2-one derivatives, preparation methods and uses thereof” (Qilu Pharmaceutical Co., Ltd., priority 2010, dated 2014)
